In ChEMBL document CHEMBL1145507, “X-ray structural analysis of Plasmodium falciparum enoyl acyl carrier protein reductase as a pathway toward the optimization of triclosan antimalarial efficacy” (J Biol Chem, 2007) one finds EC50 and IC50 data, which are given here for 29 molecules.

The test system of assay [1] is Plasmodium falciparum. Description: Antimalarial activity against Plasmodium falciparum Dd2 by reduced [3H]hypoxanthine uptake. The assay is classed as functional, organism-based.
Assay [2] relates to Plasmodium falciparum. Description: Antimalarial activity against Plasmodium falciparum 3D7 by reduced [3H]hypoxanthine uptake. In kind it is functional, organism-based.
Assay [3] concerns the target T1, Enoyl-acyl-carrier protein reductase (Plasmodium falciparum, UniProt Q965D5).
T1 sequence (Q965D5 whole entry): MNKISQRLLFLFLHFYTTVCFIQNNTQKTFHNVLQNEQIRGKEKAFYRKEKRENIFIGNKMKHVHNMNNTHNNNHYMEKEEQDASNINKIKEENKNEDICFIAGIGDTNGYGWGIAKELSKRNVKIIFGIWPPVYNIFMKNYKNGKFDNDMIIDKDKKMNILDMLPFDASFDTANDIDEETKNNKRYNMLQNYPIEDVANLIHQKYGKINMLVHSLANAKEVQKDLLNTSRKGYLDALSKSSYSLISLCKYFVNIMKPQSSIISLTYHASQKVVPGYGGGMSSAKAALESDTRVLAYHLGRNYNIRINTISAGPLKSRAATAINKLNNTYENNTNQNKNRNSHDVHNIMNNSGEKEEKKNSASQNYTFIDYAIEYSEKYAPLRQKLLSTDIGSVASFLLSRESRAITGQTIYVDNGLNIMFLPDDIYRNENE
The assay can be described thus: Inhibition of Plasmodium falciparum ENR.

Assay [4] deals with Plasmodium falciparum. Description: Antimalarial activity against Plasmodium falciparum Dd2. In kind it is functional, organism-based.
Assay [5] deals with Plasmodium falciparum. The assay can be described thus: Antimalarial activity against Plasmodium falciparum 3D7 expressing katG. In kind it is functional, organism-based.
For assay [6], the system named is Plasmodium falciparum. Description: Antimalarial activity against Plasmodium falciparum 3D7. In kind it is functional, organism-based.
Assay [7] relates to Plasmodium falciparum. Description: Antimalarial activity against Plasmodium falciparum Dd2 expressing katG. The assay is classed as functional, organism-based.

By EC50 is commonly meant the concentration giving half of the maximal effect. Low values mean an effect from little substance, high ones a need for much substance. In general, IC50 refers to the concentration that inhibits the measured activity by half. In the case of `CCC(C)Cc1ccc(Oc2ccc(Cl)cc2Cl)c(O)c1` (configuration not stated), the 50% effective concentration (EC50) in the assay with Plasmodium falciparum [1] came out at 2.9 µM; in the assay with Plasmodium falciparum [2], 2 µM. The IC50 in assay [3] was 0.29 µM.

For `Oc1cc(Cl)ccc1Oc1ccc(Cl)cc1Cl` [TRICLOSAN], the EC50 with Plasmodium falciparum [1] is 3.8 µM; with Plasmodium falciparum [2], 2.8 µM.

For `CCc1ccc(Oc2ccc(Cl)cc2Cl)c(O)c1`, the 50% effective concentration (EC50) in the assay with Plasmodium falciparum [1] turned out to be 6 µM; in the assay on Plasmodium falciparum [2] it was 4.6 µM. Further, inhibition in assay [3] was half-maximal at 0.11 µM (IC50).

Consider `Oc1cc(-c2ccccc2)ccc1Oc1ccc(Cl)cc1Cl`, for which the figures for the EC50 with Plasmodium falciparum [1] and in the assay with Plasmodium falciparum [2] were 3.9 µM and 2.3 µM, respectively. In assay [3], the half-inhibitory concentration (IC50) was determined as 0.14 µM.

As to `Cc1ccccc1-c1ccc(Oc2ccc(Cl)cc2Cl)c(O)c1`, the figures for the concentration giving a half-maximal response (EC50) in the assay on Plasmodium falciparum [1] and in the assay on Plasmodium falciparum [2] were 2.5 µM and 1.6 µM, respectively. The molecule also registered an IC50 in assay [3] of 0.44 µM.

For `Cc1ccc(Oc2ccc(Cl)cc2Cl)c(O)c1`, the values for the 50% effective concentration (EC50) with Plasmodium falciparum [1] and with Plasmodium falciparum [2] were 14 µM and 10 µM, respectively. For the same molecule, the concentration for half-maximal inhibition (IC50) in assay [3] came to 0.2 µM.

Turning to `Oc1cc(CC2CCCCC2)ccc1Oc1ccc(Cl)cc1Cl`, the EC50 in the assay on Plasmodium falciparum [1] amounted to 4.8 µM; in the assay with Plasmodium falciparum [2] it was 3.4 µM. In assay [3], this molecule gave a 50% inhibitory concentration (IC50) of 0.53 µM.

For `Oc1cc(-c2ccc(F)cc2)ccc1Oc1ccc(Cl)cc1Cl`, the half-maximal effective concentration (EC50) was 3.1 µM in the assay with Plasmodium falciparum [1] and 2.1 µM in the assay on Plasmodium falciparum [2]. The same molecule gave an IC50 in assay [3] of 0.038 µM.

Regarding `N#Cc1ccc(Oc2ccc(-c3ccccn3)cc2O)c(Cl)c1`, the EC50 was found to be 12 µM in the assay on Plasmodium falciparum [1] and 8.1 µM in the assay on Plasmodium falciparum [2]. The molecule also displayed a half-inhibitory concentration (IC50) in assay [3] of 0.7 µM.

For the molecule `NNC(=O)c1ccncc1` [ISONIAZID], the IC50 in the assay on Plasmodium falciparum [4] is 1800 µM; in the assay with Plasmodium falciparum [5] it was 1200 µM; in the assay with Plasmodium falciparum [6], 1200 µM; in the assay with Plasmodium falciparum [7], 1800 µM.

Turning to `Oc1cc(Cc2ccccc2)ccc1Oc1ccc(Cl)cc1Cl`, the EC50 with Plasmodium falciparum [1] stood at 12 µM; in the assay on Plasmodium falciparum [2] it was 11 µM. The IC50 in assay [3] came to 0.071 µM.

For `CCCc1ccc(Oc2ccc(Cl)cc2Cl)c(O)c1`, the 50% effective concentration (EC50) in the assay on Plasmodium falciparum [1] was 3 µM; in the assay with Plasmodium falciparum [2], 2.5 µM. This molecule also showed a half-inhibitory concentration (IC50) in assay [3] of 0.21 µM.

As for `CC(C)Cc1ccc(Oc2ccc(Cl)cc2Cl)c(O)c1`, the half-maximal effective concentration (EC50) in the assay on Plasmodium falciparum [1] came to 2.8 µM; in the assay with Plasmodium falciparum [2], 2 µM. The same molecule registered a concentration for half-maximal inhibition (IC50) in assay [3] of 0.18 µM.

For the molecule `Oc1cc(-c2nn[nH]n2)ccc1Oc1ccc(Cl)cc1Cl`, the half-maximal effective concentration (EC50) with Plasmodium falciparum [1] and in the assay on Plasmodium falciparum [2] was more than 100 µM in each case. Also, in assay [3], the IC50 is more than 100 µM.

As for `Oc1cc(-c2cccnc2)ccc1Oc1ccc(Cl)cc1Cl`, the 50% effective concentration (EC50) in the assay with Plasmodium falciparum [1] stood at 39 µM; with Plasmodium falciparum [2], 23 µM. The same molecule yielded an IC50 in assay [3] of 33 µM.

`NC(=O)c1ccc(Oc2ccc(Cl)cc2Cl)c(O)c1`: the EC50 with Plasmodium falciparum [1] was 45 µM; in the assay with Plasmodium falciparum [2] it was 40 µM. Moreover, the IC50 in assay [3] came out at 21 µM.

Take `Cc1ccccc1-c1ccc(Oc2ccc(C#N)cc2Cl)c(O)c1`: the EC50 is 3.3 µM in the assay on Plasmodium falciparum [1] and 2.6 µM in the assay on Plasmodium falciparum [2]. The IC50 in assay [3] turned out to be 0.41 µM.

Regarding `Cc1cccc(-c2ccc(Oc3ccc(Cl)cc3Cl)c(O)c2)c1`, the figures for the EC50 in the assay on Plasmodium falciparum [1] and in the assay with Plasmodium falciparum [2] were 6.1 µM and 3.5 µM, respectively. This molecule registered a concentration for half-maximal inhibition (IC50) in assay [3] of 0.23 µM.

`Oc1cc(Cc2ccccn2)ccc1Oc1ccc(Cl)cc1Cl`: the EC50 in the assay on Plasmodium falciparum [1] was determined as 13 µM; with Plasmodium falciparum [2], 7.5 µM. In addition, it took 0.64 µM to reach half-maximal inhibition in assay [3] (IC50).

In the case of `O=C(O)c1ccc(Oc2ccc(Cl)cc2Cl)c(O)c1`, the 50% effective concentration (EC50) with Plasmodium falciparum [1] and with Plasmodium falciparum [2] was more than 100 µM in each case. In assay [3], this molecule displayed an IC50 of more than 100 µM.

For `Oc1cc(CCCc2ccccc2)ccc1Oc1ccc(Cl)cc1Cl`, the EC50 came out at 7.2 µM in the assay with Plasmodium falciparum [1] and 6.4 µM in the assay on Plasmodium falciparum [2]. Half-maximal inhibition in assay [3] (IC50) was put at 0.44 µM.

For `CC(C)CCc1ccc(Oc2ccc(Cl)cc2Cl)c(O)c1`, the figures for the EC50 in the assay with Plasmodium falciparum [1] and in the assay on Plasmodium falciparum [2] were 8 µM and 7.4 µM, respectively. The IC50 in assay [3] was found to be 0.12 µM.

Consider `N#Cc1ccc(Oc2ccc(Cc3ccncc3)cc2O)c(Cl)c1`, for which the EC50 with Plasmodium falciparum [1] was found to be 13 µM; with Plasmodium falciparum [2] it was 7.4 µM. This molecule came in with a 50% inhibitory concentration (IC50) in assay [3] of 0.53 µM.

Turning to `Oc1cc(CCc2ccccc2)ccc1Oc1ccc(Cl)cc1Cl`, the concentration giving a half-maximal response (EC50) came to 11 µM with Plasmodium falciparum [1] and 5.6 µM in the assay with Plasmodium falciparum [2]. In assay [3], this molecule registered a half-maximal inhibitory concentration (IC50) of 0.076 µM.

Turning to `CCCCc1ccc(Oc2ccc(Cl)cc2Cl)c(O)c1`, the figures for the concentration for a half-maximal effect (EC50) in the assay with Plasmodium falciparum [1] and with Plasmodium falciparum [2] were 3.2 µM and 3.5 µM, respectively. In assay [3], this molecule yielded an IC50 of 0.48 µM.

For `N#Cc1ccc(Oc2ccc(Cl)cc2Cl)c(O)c1`, the EC50 in the assay on Plasmodium falciparum [1] was 22 µM; with Plasmodium falciparum [2] it was 19 µM. In assay [3], this molecule showed a concentration for half-maximal inhibition (IC50) of 0.049 µM.

As to `N#Cc1ccc(Oc2ccc(-c3ccncc3)cc2O)c(Cl)c1`, the half-maximal effective concentration (EC50) in the assay on Plasmodium falciparum [1] and in the assay with Plasmodium falciparum [2] was 11 µM throughout. This molecule returned a 50% inhibitory concentration (IC50) in assay [3] of 2.8 µM.

Turning to `Oc1cc(Cc2cccnc2)ccc1Oc1ccc(Cl)cc1Cl`, the concentration giving a half-maximal response (EC50) in the assay on Plasmodium falciparum [1] came out at 11 µM; in the assay on Plasmodium falciparum [2] it was 6.9 µM. In assay [3], this molecule showed a half-inhibitory concentration (IC50) of 0.84 µM.

For the molecule `Cc1ccc(-c2ccc(Oc3ccc(Cl)cc3Cl)c(O)c2)cc1`, the values for the half-maximal effective concentration (EC50) with Plasmodium falciparum [1] and with Plasmodium falciparum [2] were 4.3 µM and 2.9 µM, respectively. The molecule also returned an IC50 in assay [3] of 0.19 µM.
